Measurements reported in patent US10960020B2, “Modulation of PCSK9 and LDLR through DRP1 inhibition” (THE BRIGHAM AND WOMEN'S HOSPITAL, INC., priority 2016, dated 2021).

Experiments:
BECLIN1 = BECLIN1 mRNA and protein; type: cell-based, human; conditions: 24 hours
Source text: Human cells and mouse liver was homogenized with TriZolTM (Life Technologies, Grand Island, N.Y.) to isolate RNA. QuantiTectTM Reverse Transcription Kit (Qiagen, Hilden, Germany) was used for reverse transcription on total RNA. cDNA was generated using the Quanta gScriptTM cDNA Synthesis Kit (Bioscience Inc., Gaithersburg, Md.). mRNA levels were quantified on a 7900HT real-time PCR system (Thermo Fisher Scientific) using TaqManTM real-time PCR with the following probes: Hs02758991_g1 (human GAPDH); Mm99999915_g1 (mouse Gapdh); Hs00236329 m1 (human BCL2L1); Hs00247147_m1 (human DRP1); Hs00545399_m1 (human PCSK9); Mm01263610_m1 (mouse Pcsk9); Hs00168352_m1 (human HMGCR); […]); Hs00181192_m1 (human LDLR); Mm00440169_m1 (mouse Ldlr); Hs01088691_m1 (human SREBP1); Mm00550338_m1 (mouse Srebp1); Hs00231674_m1 (human SREBP1a); custom primer (human SREBP1c); Hs01081784_m1 (human SREBP2); Mm01306292_m1 (mouse Srebp2); Hs01005622_m1 (human FASN); […]); Hs00167041_m1 (human HNF1A); Mm00493434_m1 (mouse Hnf1a); Hs00171168 (human APOE); Hs01059118_m1 (human ABCA1); Hs01103582_s1 (human JUN). Mouse SREBP-1c was analyzed by SYBERTM green PCR with the following primers: [NT] […] Protein concentrations were determined by the Pierce BCA AssayTM (Thermo Fisher Scientific). […] Protein levels were normalized to β-ACTIN, α-TUBULIN, or LAMIN A/C with the use of NIH ImageJ software for quantification.

HepG2 cells = experiment: Mitochondrial membrane potential by TMRE, HepG2; type: cell-based, human; conditions: HepG2, Mdivi-1 50 μM, 24 hours
Experimental: Mitochondrial membrane potential was assessed by TMRE reagent (Abcam) as previously described^21.

cellular PCSK9 protein = experiment: Western blot, primary human hepatocyte cellular PCSK9 protein; type: cell-based; conditions: primary human hepatocytes, Mdivi-1 50 μM, 24 hours

COc1cc(-n2c(S)nc3ccccc3c2=O)c(Cl)cc1Cl [Mdivi-1, 3-(2,4-Dichloro-5-methoxyphenyl)-2,3-dihydro-2-thioxo-4(1H)-quinazolinone]
BECLIN1 protein abundance (BECLIN1; HepG2, Mdivi-1 50 μM): did not alter | BECLIN1 mRNA (BECLIN1; human hepatocytes, Mdivi-1 50 μM): did not alter | Mitochondrial function, assessed by mitochondrial membrane potential (HepG2 cells): not noticeably different | cellular PCSK9 protein (cellular PCSK9 protein): without altering
